# Where two headings read alike, the source gives them in different places.
# Columns and labels:
# Type in all cases: cell-based
# K. pneumoniae A-9664 = assay: In vitro MIC by tube dilution, K. pneumoniae A-9664; details: Klebsiella pneumoniae, A9664, read-out: MIC
# P. mirabilis A-9900 = assay: In vitro MIC by tube dilution, P. mirabilis A-9900; details: Proteus mirabilis, A9900, P. mirabilis A-9900; read-out: MIC
# S. marcescens A20019 = assay: In vitro MIC by tube dilution, S. marcescens A20019; details: Serratia marcescens, read-out: MIC
# S. pneumoniae A-9585 = assay: In vitro MIC by tube dilution, S. pneumoniae A-9585; details: Streptococcus pneumoniae, A9585, S. pneumoniae A-9585; read-out: MIC
# P. aeruginosa A-9843A = assay: In vitro MIC by tube dilution, P. aeruginosa A-9843A; details: Pseudomonas aeruginosa, A9843A, P. aeruginosa A-9843a; read-out: MIC
# S. pyogenes A9604 = assay: In vitro MIC by tube dilution, S. pyogenes A9604; details: Streptococcus pyogenes, A9604, S. pyogenes A-9604; read-out: MIC
# P. aeruginosa A21213 = assay: In vitro MIC by tube dilution, P. aeruginosa A21213; details: Pseudomonas aeruginosa, A21213, P. aeruginosa A21213; read-out: MIC
# E. coli A15119 = assay: In vitro MIC by tube dilution, E. coli A15119; details: Escherichia coli, read-out: MIC
# E. cloacae A-9656 = assay: In vitro MIC by tube dilution, E. cloacae A-9656; details: Enterobacter cloacae, A9656, E. cloacae A-9656; read-out: MIC
# K. pneumoniae A20468 = assay: In vitro MIC by tube dilution, K. pneumoniae A20468; details: Klebsiella pneumoniae, A20468, K. pneumoniae A20468; read-out: MIC
# [1] = tested on: S. aureus A-9606 (Pen-res.); assay: In vitro MIC by tube dilution, S. aureus A-9606 (Pen-res.); details: Staphylococcus aureus, S. aureus A-9606 (Pen-res); read-out: MIC
# P. morganii A15153 = assay: In vitro MIC by tube dilution, P. morganii (M. morganii) A15153; details: Morganella morganii, A15153, M. morganii A15153; read-out: MIC
# S. aureus A-9537 = assay: In vitro MIC by tube dilution, S. aureus A-9537; details: Staphylococcus aureus, read-out: MIC
# E. coli A20341-1 = assay: In vitro MIC by tube dilution, E. coli A20341-1; details: Escherichia coli, A203411, read-out: MIC
# E. cloacae A-9659 = assay: In vitro MIC by tube dilution, E. cloacae A-9659; details: Enterobacter cloacae, A9659, E. cloacae A-9659; read-out: MIC
# P. rettgeri A22424 = assay: In vitro MIC by tube dilution, P. rettgeri A22424; details: Providencia rettgeri, A22424, P. rettgeri A22424; read-out: MIC
# S. faecalis A20688 = assay: In vitro MIC by tube dilution, S. faecalis A20688; details: Enterococcus faecalis, A20688, S. faecalis A20688; read-out: MIC
# [2] = A9537, S. aureus A-9537, no serum
# [3] = A9537, S. aureus A-9537 +50% serum
Structure (SMILES),MIC (K. pneumoniae A-9664) [µg/mL],MIC (P. mirabilis A-9900) [µg/mL],MIC (S. marcescens A20019) [µg/mL],MIC (S. pneumoniae A-9585) [µg/mL],MIC (P. aeruginosa A-9843A) [µg/mL],MIC (S. pyogenes A9604) [µg/mL],MIC (P. aeruginosa A21213) [µg/mL],MIC (E. coli A15119; E. coli A15119) [µg/mL],MIC (E. cloacae A-9656) [µg/mL],MIC (K. pneumoniae A20468) [µg/mL],MIC [1] [µg/mL],MIC (P. morganii A15153) [µg/mL],MIC (S. aureus A-9537; [2]) [µg/mL],MIC (E. coli A20341-1) [µg/mL],MIC (E. cloacae A-9659) [µg/mL],MIC (P. rettgeri A22424) [µg/mL],"MIC (E. coli A15119; A15119, E. coli A15119) [µg/mL]",MIC (S. aureus A-9537; [3]) [µg/mL],MIC (S. faecalis A20688) [µg/mL]
"C[C@@H](O)[C@H]1C(=O)N2C(C(=O)[O-])=C(SCc3cn(C)n[n+]3CC(=O)O)C[C@H]12 [Example 17, Potassium 3-[5-(1-carboxylatomethyl-3-methyl-1,2,3-triazolium)-methanethio]-6α-[1-(R)-hydroxyethyl]-7-oxo-1-azabicyclo[3.2.0]hept-2-ene-2-carboxylate]",0.13,0.13,0.13,0.016,> 63,0.016,–,–,–,–,–,–,–,–,–,–,–,–,–
"C[C@@H](O)[C@H]1C(=O)N2C(C(=O)[O-])=C(SCc3n(C)nc[n+]3C)C[C@H]12 [Example 19, 3-[5-(1,4-Dimethyl-1,2,4-triazolium)methanethio]-6α-[1-(R)-hydroxyethyl]-7-oxo-1-azabicyclo[3.2.0]hept-2-ene-2-carboxylate]",0.03,0.03,0.03,0.002,–,0.002,0.06,0.008,0.03,0.06,0.016,0.06,0.004,0.008,0.03,0.13,–,–,–
"C[C@@H](O)[C@H]1C(=O)N2C(C(=O)[O-])=C(SCc3cs[n+](C)n3)C[C@H]12 [Example 16, (5R,6S) 6-(1R-hydroxyethyl)-3-(2-methyl-1,2,3-thiadiazolium-4-ylmethylthio)-7-oxo-1-azabicyclo[3.2.0]hept-2-ene-2-carboxylate]",0.06,0.06,0.06,0.002,0.25,0.002,–,–,0.06,0.06,0.016,–,0.008,0.016,0.06,–,0.016,0.03,–
"C[C@@H](O)[C@H]1C(=O)N2C(C(=O)[O-])=C(SCc3n(Cc4ccccc4)cc[n+]3C)C[C@H]12 [Example 13, 3-(N-Methyl-N'-benzylimidazole-2-yl-methanethio)-6α-[1-(R)-hydroxyethyl]-7-oxo-1-azabicyclo(3.2.0)hept-2-ene-2-carboxylate]",0.03,0.016,0.016,–,32,–,–,0.004,0.03,0.13,0.008,0.016,0.008,0.008,0.06,–,–,0.016,0.13
"C[C@@H](O)[C@H]1C(=O)N2C(C(=O)[O-])=C(SCc3cccc[n+]3C)C[C@H]12 [Example 4, 3-(N-Methylpyridine-2-yl-methanethio)-6α-[1-(R)-hydroxyethyl]-7-oxo-1-azabicyclo(3.2.0)hept-2-ene-2-carboxylate]",–,–,–,0.002,2,–,–,–,–,–,0.016,0.016,0.008,0.016,–,–,0.016,–,–
"Cc1sc(CSC2=C(C(=O)[O-])N3C(=O)[C@H]([C@@H](C)O)[C@H]3C2)c(C)[n+]1C [Example 10, 3-(2,3,4,-Trimethylthiazole-5-yl-methanethio)-6α[1-(R)-hydroxyethyl]-7-oxo-1-azabicyclo(3.2.0)hept-2-ene-2-carboxylate]",–,0.13,–,–,32,–,–,–,0.13,0.13,0.008,–,0.008,0.008,0.13,0.13,0.016,–,–
"C[C@@H](O)[C@H]1C(=O)N2C(C(=O)[O-])=C(SCc3scc[n+]3C)C[C@H]12 [Example 11, 3-[2-(N-Methylthiazolium)methylthio]-6α-[1-(R)-hydroxyethyl]-7-oxo-1-azabicyclo(3.2.0)hept-2-ene-2-carboxylate]",0.03,0.03,0.06,0.002,–,0.002,0.13,–,0.13,0.13,0.016,0.06,0.004,0.03,0.06,0.13,0.016,0.016,–

# From patent US4746736A, “Carbapenem antibiotics” (priority 1986, dated 1988)
